Reference: ChEMBL document CHEMBL5291721, “A preclinical secondary pharmacology resource illuminates target-adverse drug reaction associations of marketed drugs” (Nat Commun, 2023)

Tests used:
[1] = biological target: Kappa-type opioid receptor (Homo sapiens, UniProt P41145)
[2] = biological target: T1, Alpha-2B adrenergic receptor (Homo sapiens, UniProt P18089)
T1 sequence (P18089 whole entry): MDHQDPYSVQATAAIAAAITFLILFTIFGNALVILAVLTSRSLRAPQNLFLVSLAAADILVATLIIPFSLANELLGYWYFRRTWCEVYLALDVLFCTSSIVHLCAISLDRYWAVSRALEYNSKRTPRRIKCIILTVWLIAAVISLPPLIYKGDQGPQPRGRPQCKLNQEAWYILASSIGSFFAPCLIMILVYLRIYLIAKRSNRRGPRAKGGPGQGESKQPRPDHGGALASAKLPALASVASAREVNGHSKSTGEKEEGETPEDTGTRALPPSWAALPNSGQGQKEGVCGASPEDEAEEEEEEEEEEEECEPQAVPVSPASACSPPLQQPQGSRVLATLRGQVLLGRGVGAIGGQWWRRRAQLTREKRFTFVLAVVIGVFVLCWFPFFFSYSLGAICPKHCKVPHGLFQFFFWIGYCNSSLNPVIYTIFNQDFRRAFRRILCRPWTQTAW

[3] = biological target: Melanocortin receptor 4 (Homo sapiens, UniProt P32245)
[4] = biological target: Voltage-dependent L-type calcium channel subunit alpha-1C (Rattus norvegicus, UniProt P22002); type: functional
[5] = biological target: Mu-type opioid receptor (Homo sapiens, UniProt P35372)
[6] = biological target: D(1A) dopamine receptor (Homo sapiens, UniProt P21728); type: functional, cell-based
[7] = biological target: T2, Cannabinoid receptor 1 (Homo sapiens, UniProt P21554); type: functional, cell-based
[8] = biological target: T2, Cannabinoid receptor 1; type: functional, cell-based; remark: listed apart in the source
[9] = biological target: T3, Alpha-2A adrenergic receptor (Homo sapiens, UniProt P08913); type: functional, cell-based
T3 sequence (P08913 whole entry): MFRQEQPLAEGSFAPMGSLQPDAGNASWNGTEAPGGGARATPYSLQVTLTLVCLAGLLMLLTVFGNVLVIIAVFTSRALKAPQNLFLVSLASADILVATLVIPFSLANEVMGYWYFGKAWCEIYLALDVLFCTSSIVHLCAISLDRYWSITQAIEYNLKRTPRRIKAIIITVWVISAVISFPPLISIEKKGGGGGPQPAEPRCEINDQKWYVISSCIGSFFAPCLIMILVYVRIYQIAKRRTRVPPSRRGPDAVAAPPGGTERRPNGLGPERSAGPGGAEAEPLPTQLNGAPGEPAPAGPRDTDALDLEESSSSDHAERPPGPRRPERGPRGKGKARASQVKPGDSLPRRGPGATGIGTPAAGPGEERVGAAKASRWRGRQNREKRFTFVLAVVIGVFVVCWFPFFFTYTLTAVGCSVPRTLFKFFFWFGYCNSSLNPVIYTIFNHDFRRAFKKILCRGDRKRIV

[10] = biological target: T4, Progesterone receptor (Homo sapiens, UniProt P06401); type: functional
T4 sequence (P06401 whole entry): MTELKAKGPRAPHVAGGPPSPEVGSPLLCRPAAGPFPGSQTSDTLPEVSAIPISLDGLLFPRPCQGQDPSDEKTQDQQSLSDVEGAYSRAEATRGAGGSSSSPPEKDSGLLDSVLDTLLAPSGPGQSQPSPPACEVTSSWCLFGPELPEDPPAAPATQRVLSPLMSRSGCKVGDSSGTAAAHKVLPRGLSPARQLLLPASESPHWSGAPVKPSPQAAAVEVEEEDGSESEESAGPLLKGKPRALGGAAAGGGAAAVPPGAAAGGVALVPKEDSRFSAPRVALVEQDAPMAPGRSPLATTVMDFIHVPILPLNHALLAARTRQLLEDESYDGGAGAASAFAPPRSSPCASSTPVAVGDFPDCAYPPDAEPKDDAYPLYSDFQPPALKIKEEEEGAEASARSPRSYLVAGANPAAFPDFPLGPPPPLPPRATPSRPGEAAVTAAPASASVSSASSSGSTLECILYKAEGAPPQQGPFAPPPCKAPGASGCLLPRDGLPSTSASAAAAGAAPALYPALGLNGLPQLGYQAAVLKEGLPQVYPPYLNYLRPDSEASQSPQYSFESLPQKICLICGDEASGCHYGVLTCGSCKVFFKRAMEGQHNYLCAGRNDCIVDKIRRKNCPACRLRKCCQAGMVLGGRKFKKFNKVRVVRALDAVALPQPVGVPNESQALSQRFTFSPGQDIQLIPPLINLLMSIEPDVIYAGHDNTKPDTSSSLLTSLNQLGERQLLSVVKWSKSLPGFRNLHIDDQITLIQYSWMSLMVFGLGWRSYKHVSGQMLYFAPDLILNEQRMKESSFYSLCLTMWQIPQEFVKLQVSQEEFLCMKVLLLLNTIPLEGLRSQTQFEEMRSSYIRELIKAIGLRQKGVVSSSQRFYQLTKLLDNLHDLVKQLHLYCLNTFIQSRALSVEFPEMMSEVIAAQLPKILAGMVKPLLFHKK

[11] = biological target: Histamine H3 receptor (Homo sapiens, UniProt Q9Y5N1)
Also: assay procedure not described here.

Mu-type opioid receptor, sequence (P35372 whole entry): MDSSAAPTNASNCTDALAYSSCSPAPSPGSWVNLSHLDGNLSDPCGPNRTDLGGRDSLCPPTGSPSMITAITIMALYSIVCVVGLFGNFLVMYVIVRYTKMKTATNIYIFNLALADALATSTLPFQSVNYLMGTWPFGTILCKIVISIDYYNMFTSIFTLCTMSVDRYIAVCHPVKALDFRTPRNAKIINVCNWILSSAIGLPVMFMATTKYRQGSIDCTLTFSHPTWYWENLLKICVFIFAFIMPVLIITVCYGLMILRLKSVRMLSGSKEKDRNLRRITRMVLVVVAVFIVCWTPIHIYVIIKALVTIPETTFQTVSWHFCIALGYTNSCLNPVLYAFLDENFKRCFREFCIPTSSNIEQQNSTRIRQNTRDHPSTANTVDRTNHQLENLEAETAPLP
Melanocortin receptor 4, sequence (P32245 whole entry): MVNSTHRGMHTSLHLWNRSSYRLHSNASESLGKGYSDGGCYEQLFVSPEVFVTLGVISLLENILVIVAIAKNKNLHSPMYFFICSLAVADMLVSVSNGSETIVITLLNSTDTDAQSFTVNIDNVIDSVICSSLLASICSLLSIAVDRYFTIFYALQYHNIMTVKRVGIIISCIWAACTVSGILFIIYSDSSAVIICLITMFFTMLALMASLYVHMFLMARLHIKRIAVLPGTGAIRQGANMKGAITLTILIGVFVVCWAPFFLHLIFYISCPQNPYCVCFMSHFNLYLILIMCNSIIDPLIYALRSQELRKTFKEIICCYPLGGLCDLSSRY
D(1A) dopamine receptor, sequence (P21728 whole entry): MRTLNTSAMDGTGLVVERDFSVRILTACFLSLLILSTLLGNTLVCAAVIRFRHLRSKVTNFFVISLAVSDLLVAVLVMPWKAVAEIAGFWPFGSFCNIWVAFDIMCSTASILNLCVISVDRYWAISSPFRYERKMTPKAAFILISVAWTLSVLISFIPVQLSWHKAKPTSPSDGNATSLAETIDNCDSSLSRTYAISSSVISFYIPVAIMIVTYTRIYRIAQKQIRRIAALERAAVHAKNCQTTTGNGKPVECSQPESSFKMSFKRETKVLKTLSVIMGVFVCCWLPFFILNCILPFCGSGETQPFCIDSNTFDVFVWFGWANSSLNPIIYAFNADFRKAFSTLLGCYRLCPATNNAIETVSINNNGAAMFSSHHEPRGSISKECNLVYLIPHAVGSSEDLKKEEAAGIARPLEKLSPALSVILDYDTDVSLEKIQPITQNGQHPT
Kappa-type opioid receptor, sequence (P41145 whole entry): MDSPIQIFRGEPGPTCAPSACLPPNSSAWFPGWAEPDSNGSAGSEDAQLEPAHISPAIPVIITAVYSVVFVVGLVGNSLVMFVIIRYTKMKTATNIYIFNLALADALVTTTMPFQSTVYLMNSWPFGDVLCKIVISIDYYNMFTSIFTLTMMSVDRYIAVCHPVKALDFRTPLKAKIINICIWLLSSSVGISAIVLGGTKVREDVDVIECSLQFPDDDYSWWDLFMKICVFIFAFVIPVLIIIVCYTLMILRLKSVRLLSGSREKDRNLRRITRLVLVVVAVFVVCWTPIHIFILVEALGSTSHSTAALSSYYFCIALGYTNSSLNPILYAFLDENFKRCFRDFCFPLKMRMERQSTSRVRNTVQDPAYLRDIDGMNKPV
T2 sequence (P21554 whole entry): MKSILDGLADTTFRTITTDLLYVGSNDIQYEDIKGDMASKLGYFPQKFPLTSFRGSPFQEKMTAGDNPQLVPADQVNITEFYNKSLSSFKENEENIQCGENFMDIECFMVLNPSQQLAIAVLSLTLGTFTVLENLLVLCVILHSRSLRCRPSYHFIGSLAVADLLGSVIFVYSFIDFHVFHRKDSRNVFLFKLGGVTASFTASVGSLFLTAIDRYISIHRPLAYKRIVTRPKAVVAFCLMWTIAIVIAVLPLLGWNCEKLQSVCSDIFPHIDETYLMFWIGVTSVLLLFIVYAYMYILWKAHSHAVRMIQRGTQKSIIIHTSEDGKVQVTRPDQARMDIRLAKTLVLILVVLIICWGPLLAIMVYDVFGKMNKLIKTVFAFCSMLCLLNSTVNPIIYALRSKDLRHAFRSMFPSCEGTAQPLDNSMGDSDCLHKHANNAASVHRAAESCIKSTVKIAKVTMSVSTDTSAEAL
Voltage-dependent L-type calcium channel subunit alpha-1C, sequence (P22002 whole entry): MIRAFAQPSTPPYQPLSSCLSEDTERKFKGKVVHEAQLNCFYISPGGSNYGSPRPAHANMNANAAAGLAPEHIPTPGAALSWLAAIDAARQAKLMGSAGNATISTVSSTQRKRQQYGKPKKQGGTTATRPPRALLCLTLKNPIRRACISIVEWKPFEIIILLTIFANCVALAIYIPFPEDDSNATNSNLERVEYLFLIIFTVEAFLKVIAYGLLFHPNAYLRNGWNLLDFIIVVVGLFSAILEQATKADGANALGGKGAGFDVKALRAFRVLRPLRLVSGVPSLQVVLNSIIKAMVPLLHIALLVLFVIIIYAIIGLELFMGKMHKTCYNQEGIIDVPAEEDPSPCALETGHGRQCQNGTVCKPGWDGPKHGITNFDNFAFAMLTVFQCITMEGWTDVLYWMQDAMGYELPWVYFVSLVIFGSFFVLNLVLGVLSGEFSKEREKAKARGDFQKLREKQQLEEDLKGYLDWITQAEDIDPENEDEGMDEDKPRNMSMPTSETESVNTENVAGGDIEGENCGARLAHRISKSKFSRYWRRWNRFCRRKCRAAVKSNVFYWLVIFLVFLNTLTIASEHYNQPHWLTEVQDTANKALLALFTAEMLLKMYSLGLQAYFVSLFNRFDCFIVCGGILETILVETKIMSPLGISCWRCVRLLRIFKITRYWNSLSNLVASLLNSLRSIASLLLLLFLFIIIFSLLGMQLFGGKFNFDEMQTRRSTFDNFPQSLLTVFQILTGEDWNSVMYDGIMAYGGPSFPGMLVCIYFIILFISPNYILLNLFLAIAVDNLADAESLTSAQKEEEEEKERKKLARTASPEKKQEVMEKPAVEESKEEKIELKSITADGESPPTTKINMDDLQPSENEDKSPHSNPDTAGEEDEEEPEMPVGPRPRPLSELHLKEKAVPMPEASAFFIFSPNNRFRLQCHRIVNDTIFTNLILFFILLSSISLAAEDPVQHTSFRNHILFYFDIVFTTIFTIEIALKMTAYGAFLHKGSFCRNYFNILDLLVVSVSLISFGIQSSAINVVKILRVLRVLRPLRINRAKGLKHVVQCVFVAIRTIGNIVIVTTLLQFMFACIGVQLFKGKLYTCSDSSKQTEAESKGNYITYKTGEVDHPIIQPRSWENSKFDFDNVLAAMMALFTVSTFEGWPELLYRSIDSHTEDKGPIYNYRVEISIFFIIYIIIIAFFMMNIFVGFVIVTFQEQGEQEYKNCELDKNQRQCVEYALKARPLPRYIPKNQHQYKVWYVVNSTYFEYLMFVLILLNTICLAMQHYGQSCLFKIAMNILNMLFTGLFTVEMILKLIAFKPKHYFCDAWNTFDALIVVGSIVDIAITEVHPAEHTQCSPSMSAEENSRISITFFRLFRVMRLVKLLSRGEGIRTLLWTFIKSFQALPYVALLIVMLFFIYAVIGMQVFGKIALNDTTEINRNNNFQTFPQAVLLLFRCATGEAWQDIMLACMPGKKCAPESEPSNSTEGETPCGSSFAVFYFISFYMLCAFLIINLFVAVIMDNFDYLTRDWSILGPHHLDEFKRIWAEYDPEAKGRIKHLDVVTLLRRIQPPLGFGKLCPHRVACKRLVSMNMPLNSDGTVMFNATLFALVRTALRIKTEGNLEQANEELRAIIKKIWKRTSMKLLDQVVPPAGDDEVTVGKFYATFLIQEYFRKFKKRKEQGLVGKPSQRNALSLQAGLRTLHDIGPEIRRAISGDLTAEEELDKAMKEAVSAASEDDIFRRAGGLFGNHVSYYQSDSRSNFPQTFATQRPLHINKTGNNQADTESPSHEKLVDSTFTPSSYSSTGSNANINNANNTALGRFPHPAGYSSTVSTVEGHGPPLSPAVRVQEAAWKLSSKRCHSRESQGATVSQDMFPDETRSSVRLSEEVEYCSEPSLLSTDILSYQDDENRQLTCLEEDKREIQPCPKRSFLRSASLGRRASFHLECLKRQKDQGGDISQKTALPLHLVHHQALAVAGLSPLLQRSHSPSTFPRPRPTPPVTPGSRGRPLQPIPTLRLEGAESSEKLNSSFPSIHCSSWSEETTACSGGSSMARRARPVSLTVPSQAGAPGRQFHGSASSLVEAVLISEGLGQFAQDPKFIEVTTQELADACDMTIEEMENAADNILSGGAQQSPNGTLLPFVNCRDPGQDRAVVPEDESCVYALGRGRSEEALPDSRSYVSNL
Histamine H3 receptor, sequence (Q9Y5N1 whole entry): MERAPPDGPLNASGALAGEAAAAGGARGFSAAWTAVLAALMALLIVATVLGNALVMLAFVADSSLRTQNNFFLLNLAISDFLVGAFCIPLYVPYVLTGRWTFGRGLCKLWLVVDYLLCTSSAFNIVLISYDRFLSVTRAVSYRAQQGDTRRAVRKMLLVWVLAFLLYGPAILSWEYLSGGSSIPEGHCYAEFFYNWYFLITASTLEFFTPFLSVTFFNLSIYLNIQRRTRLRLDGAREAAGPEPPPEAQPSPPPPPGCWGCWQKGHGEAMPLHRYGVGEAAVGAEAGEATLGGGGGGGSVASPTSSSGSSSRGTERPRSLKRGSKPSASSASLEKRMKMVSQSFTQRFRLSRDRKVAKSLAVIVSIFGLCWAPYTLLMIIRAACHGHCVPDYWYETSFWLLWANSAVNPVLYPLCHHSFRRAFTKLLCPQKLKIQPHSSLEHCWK

Row | SMILES | AC50 [1] [µM] | AC50 [2] [µM] | AC50 [3] [µM] | AC50 [4] [µM] | AC50 [5] [µM] | AC50 [6] [µM] | AC50 [7] [µM] | AC50 [8] [µM] | AC50 [9] [µM] | AC50 [10] [µM] | AC50 [11] [µM]
1 | CCC[C@H](NC(=O)[C@@H]1[C@H]2CCC[C@H]2CN1C(=O)[C@@H](NC(=O)[C@@H](NC(=O)c1cnccn1)C1CCCCC1)C(C)(C)C)C(=O)C(=O)NC1CC1 | > 10 | > 10 | > 30 | > 10 | > 30 | – | – | – | – | – | –
2 | CN1CCC(=C2c3ccccc3CCc3cccnc32)CC1 [AZATADINE] | 9.38 | > 10 | > 30 | > 10 | > 30 | > 10 | > 30 | > 30 | > 10 | – | –
3 | CCCCC(=O)O[C@]1(C(=O)CO)[C@@H](C)C[C@H]2[C@@H]3CCC4=CC(=O)C=C[C@]4(C)[C@@]3(F)[C@@H](O)C[C@@]21C [BETAMETHASONE VALERATE] | > 10 | > 10 | > 30 | > 10 | > 30 | > 10 | > 30 | > 30 | > 10 | – | –
4 | CNC1=Nc2ccc(Cl)cc2C(c2ccccc2)=[N+]([O-])C1 [CHLORDIAZEPOXIDE] | – | – | > 30 | > 10 | > 10 | > 30 | – | – | > 10 | – | –
5 | Nc1ncn([C@H]2C[C@H](O)[C@@H](CO)O2)c(=O)n1 [DECITABINE] | > 30 | > 30 | > 30 | > 30 | – | > 30 | – | – | > 30 | > 30 | –
6 | CC(C)(C)C(=O)OCC(=O)[C@H]1CC[C@H]2[C@@H]3CCC4=CC(=O)CC[C@]4(C)[C@H]3CC[C@]12C [DESOXYCORTICOSTERONE PIVALATE] | > 10 | > 10 | > 10 | > 10 | > 30 | > 10 | > 30 | > 30 | > 10 | – | –
7 | CC(CCc1ccc(O)cc1)NCCc1ccc(O)c(O)c1 (stereo unspecified) [DOBUTAMINE] | 6.86 | – | > 30 | > 30 | 1.7 | 13 | > 30 | > 30 | > 30 | > 30 | –
8 | CCC(=O)O[C@]1(C(=O)SCF)[C@H](C)C[C@H]2[C@@H]3C[C@H](F)C4=CC(=O)C=C[C@]4(C)[C@@]3(F)[C@@H](O)C[C@@]21C [FLUTICASONE PROPIONATE] | > 30 | > 30 | > 30 | > 30 | > 30 | > 30 | > 30 | > 30 | > 30 | – | > 30
9 | CC(C)NCC(O)c1ccc(O)c(O)c1 (stereo unspecified) [ISOPROTERENOL] | > 10 | – | > 30 | > 10 | > 30 | > 30 | > 30 | > 30 | – | > 30 | –
10 | C[C@H](Cc1ccc(O)c(O)c1)[C@@H](C)Cc1ccc(O)c(O)c1 [MASOPROCOL] | 15 | 8.1 | > 10 | > 10 | > 30 | > 10 | > 30 | > 30 | > 10 | – | –
11 | CC12CC3CC(C)(C1)CC(N)(C3)C2 [MEMANTINE] | 15.2 | > 10 | > 30 | > 10 | > 10 | > 10 | > 30 | > 30 | > 10 | – | –
12 | CCOC(=O)C1=C(C)NC(C)=C(C(=O)OC)C1c1cccc([N+](=O)[O-])c1 (stereo unspecified) [NITRENDIPINE] | > 10 | – | > 30 | 0.0004 | > 30 | > 30 | 22 | > 30 | > 10 | – | –
13 | [H]/N=C(/N)N/C(=N/[H])NCCc1ccccc1 [PHENFORMIN] | > 10 | 15 | > 30 | > 30 | > 30 | > 30 | – | – | > 10 | – | –
14 | CCCCC1C(=O)N(c2ccccc2)N(c2ccccc2)C1=O [PHENYLBUTAZONE] | > 10 | – | > 30 | > 10 | > 30 | > 10 | – | – | > 10 | > 10 | –
15 | CC(N)C(O)c1ccccc1 (stereo unspecified) [PHENYLPROPANOLAMINE] | > 10 | > 10 | > 30 | > 10 | > 10 | > 10 | – | > 30 | > 10 | – | –
16 | CCCN[C@H]1CCc2nc(N)sc2C1 [PRAMIPEXOLE] | > 10 | – | > 30 | > 10 | > 30 | – | > 30 | > 30 | – | > 30 | –
17 | CNCc1ccc(-c2[nH]c3cc(F)cc4c3c2CCNC4=O)cc1 [RUCAPARIB] | – | – | > 30 | – | > 30 | – | – | – | – | – | –
18 | Cc1noc(NS(=O)(=O)c2ccc(N)cc2)c1C [SULFISOXAZOLE] | > 10 | – | > 10 | > 10 | > 30 | > 10 | > 30 | > 30 | > 10 | > 10 | –
19 | CCC(=O)O[C@H]1CC[C@H]2[C@@H]3CCC4=CC(=O)CC[C@]4(C)[C@H]3CC[C@]12C [TESTOSTERONE PROPIONATE] | 7.71 | > 10 | > 10 | > 10 | > 30 | > 10 | > 30 | > 30 | > 10 | – | –
20 | Clc1ccc(C(Cn2ccnc2)OCc2ccsc2Cl)c(Cl)c1 (stereo unspecified) [TIOCONAZOLE] | 1.8 | > 30 | > 30 | 23 | – | > 30 | – | – | > 30 | 10.3 | –
21 | Cc1cc2cc3c(C)cc(=O)oc3c(C)c2o1 [TRIOXSALEN] | > 10 | – | > 10 | > 10 | > 30 | > 10 | – | – | > 10 | > 30 | –
22 | CC(C)[C@H](N)C(=O)OCC(CO)OCn1cnc2c(=O)nc(N)[nH]c21 (stereo partly specified) [VALGANCICLOVIR] | > 30 | > 30 | > 30 | > 30 | – | > 30 | – | – | > 30 | > 30 | –
23 | CCCC(CCC)C(N)=O [VALPROMIDE] | > 10 | > 10 | > 30 | > 10 | > 30 | > 10 | > 30 | > 30 | > 10 | – | –
